Results as given in the NIST ThermoML archive (doi:10.1016/j.jct.2017.07.004).

Test: xn = mol fraction of the nth substance listed
Settings: 100 kPa, Liquid; for viscosity: Concentric cylinders viscometry; for mass density: Vibrating tube method

CCC=O [propanal] + CC(C)O
Settings | mass density [kg/m3] | viscosity [mPa·s]
293.15 K, x1 = 0.0812 | 792 | 2.37
293.15 K, x1 = 0.16 | 797.2 | 2.3
293.15 K, x1 = 0.24 | 801.6 | 2.2
293.15 K, x1 = 0.3499 | 806.4 | 2
293.15 K, x1 = 0.4402 | 809.2 | 1.81
293.15 K, x1 = 0.5619 | 811.4 | 1.52
293.15 K, x1 = 0.6483 | 811.8 | 1.3
293.15 K, x1 = 0.74 | 811.3 | 1.06
293.15 K, x1 = 0.85 | 809.1 | 0.76
293.15 K, x1 = 0.94 | 806 | 0.51
293.15 K, x1 = 1 | 802.4 | 0.34
298.15 K, x1 = 0.0812 | 786.6 | 2.04
298.15 K, x1 = 0.16 | 791.5 | 1.97
298.15 K, x1 = 0.24 | 795.9 | 1.88
298.15 K, x1 = 0.3499 | 800.4 | 1.72
298.15 K, x1 = 0.4402 | 803 | 1.56
298.15 K, x1 = 0.5619 | 804.9 | 1.32
298.15 K, x1 = 0.6483 | 805 | 1.13
298.15 K, x1 = 0.74 | 804.1 | 0.93
298.15 K, x1 = 0.85 | 802.3 | 0.67
298.15 K, x1 = 0.94 | 799.1 | 0.46
298.15 K, x1 = 1 | 796.2 | 0.33
303.15 K, x1 = 0.0812 | 781.5 | 1.76
303.15 K, x1 = 0.16 | 786.2 | 1.69
303.15 K, x1 = 0.24 | 790 | 1.61
303.15 K, x1 = 0.3499 | 794.5 | 1.47
303.15 K, x1 = 0.4402 | 797.1 | 1.33
303.15 K, x1 = 0.5619 | 798.8 | 1.13
303.15 K, x1 = 0.6483 | 798.8 | 0.97
303.15 K, x1 = 0.74 | 797.8 | 0.8
303.15 K, x1 = 0.85 | 795.8 | 0.59
303.15 K, x1 = 0.94 | 792.6 | 0.42
303.15 K, x1 = 1 | 790.3 | 0.31
308.15 K, x1 = 0.0812 | 776.7 | 1.52
308.15 K, x1 = 0.16 | 780.9 | 1.46
308.15 K, x1 = 0.24 | 784.3 | 1.38
308.15 K, x1 = 0.3499 | 788.2 | 1.26
308.15 K, x1 = 0.4402 | 790.5 | 1.14
308.15 K, x1 = 0.5619 | 792 | 0.97
308.15 K, x1 = 0.6483 | 792 | 0.83
308.15 K, x1 = 0.74 | 791.4 | 0.69
308.15 K, x1 = 0.85 | 789.5 | 0.52
308.15 K, x1 = 0.94 | 786.4 | 0.39
308.15 K, x1 = 1 | 784.5 | 0.3
313.15 K, x1 = 0.0812 | 771.8 | 1.31
313.15 K, x1 = 0.16 | 775.5 | 1.24
313.15 K, x1 = 0.24 | 778.8 | 1.17
313.15 K, x1 = 0.3499 | 782.4 | 1.06
313.15 K, x1 = 0.4402 | 784.3 | 0.96
313.15 K, x1 = 0.5619 | 785.7 | 0.83
313.15 K, x1 = 0.6483 | 785.8 | 0.72
313.15 K, x1 = 0.74 | 785.3 | 0.61
313.15 K, x1 = 0.85 | 783.3 | 0.47
313.15 K, x1 = 0.94 | 780.8 | 0.36
313.15 K, x1 = 1 | 779 | 0.28
318.15 K, x1 = 0.0812 | 766.8 | 1.14
318.15 K, x1 = 0.16 | 770.2 | 1.08
318.15 K, x1 = 0.24 | 773.1 | 1.01
318.15 K, x1 = 0.3499 | 776.5 | 0.91
318.15 K, x1 = 0.4402 | 778.4 | 0.83
318.15 K, x1 = 0.5619 | 779.7 | 0.71
318.15 K, x1 = 0.6483 | 779.7 | 0.63
318.15 K, x1 = 0.74 | 778.9 | 0.53
318.15 K, x1 = 0.85 | 777.2 | 0.42
318.15 K, x1 = 0.94 | 775.4 | 0.33
318.15 K, x1 = 1 | 773.5 | 0.27
323.15 K, x1 = 0.0812 | 761.6 | 0.99
323.15 K, x1 = 0.16 | 764.6 | 0.94
323.15 K, x1 = 0.24 | 767.1 | 0.87
323.15 K, x1 = 0.3499 | 770 | 0.79
323.15 K, x1 = 0.4402 | 771.7 | 0.72
323.15 K, x1 = 0.5619 | 772.8 | 0.62
323.15 K, x1 = 0.6483 | 772.8 | 0.55
323.15 K, x1 = 0.74 | 772.4 | 0.47
323.15 K, x1 = 0.85 | 770.9 | 0.38
323.15 K, x1 = 0.94 | 769.4 | 0.3
323.15 K, x1 = 1 | 768.2 | 0.25
